Measurements as given in ChEMBL document CHEMBL1765003, “Discovery of (1S,2R,3R)-2,3-dimethyl-2-phenyl-1-sulfamidocyclopropanecarboxylates: novel and highly selective aggrecanase inhibitors” (J Med Chem, 2011).

Experiments:
Cytochrome P450 2A6 = target: T1, Cytochrome P450 2A6 (Homo sapiens, UniProt P11509); assay: Inhibition of CYP2A6 at up to 50 uM; type: ADME
T1 sequence (P11509 whole entry): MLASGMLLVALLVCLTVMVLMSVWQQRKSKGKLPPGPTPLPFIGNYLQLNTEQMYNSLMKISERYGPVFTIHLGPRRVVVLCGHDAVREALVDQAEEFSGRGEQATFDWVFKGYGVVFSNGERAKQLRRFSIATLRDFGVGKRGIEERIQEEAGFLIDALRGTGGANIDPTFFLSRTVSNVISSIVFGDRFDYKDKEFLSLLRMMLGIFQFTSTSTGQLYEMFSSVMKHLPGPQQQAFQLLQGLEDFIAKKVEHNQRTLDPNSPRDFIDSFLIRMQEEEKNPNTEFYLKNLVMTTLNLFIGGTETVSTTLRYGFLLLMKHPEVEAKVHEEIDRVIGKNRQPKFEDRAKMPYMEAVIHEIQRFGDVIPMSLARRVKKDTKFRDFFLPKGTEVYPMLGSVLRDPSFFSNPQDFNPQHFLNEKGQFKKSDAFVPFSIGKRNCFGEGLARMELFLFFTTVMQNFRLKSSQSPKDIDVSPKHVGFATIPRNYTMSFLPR

[1] = Cmax in Sprague-Dawley rat at 10 mg/kg, po; type: ADME, organism-based; design: dose 10 mg/kg, route oral; conditions: in vivo

For `C[C@@H]1[C@](C)(c2ccccc2)[C@]1(NS(=O)(=O)N1CCc2c(nc3cc(F)ccn23)C1)C(=O)O`, which “inhibition (INH)” value (Cytochrome P450 2A6) is on record?
Its value is “Not Active”.

And the Cmax [1]?
Its Cmax is 54.1 µM.
